Molecules are shown by their SMILES.

What is called melting point is the temperature, or range, at which the solid turns liquid. As for `CC1(C)CCC(C)(C)c2cc3c(cc21)CCc1c(-c2ccc(C(=O)O)cc2)csc1-3`, the melting point is 261 to 262 °C. With `O=C(O)CCc1cc2cc(Cl)ccc2n1S(=O)(=O)c1ccc2[nH]ccc2c1`, the melting point was determined as 79 °C. Under `Cn1cc(-c2cccc(N3Cc4cc(C(C)(C)C)ccc4C3=O)c2CO)cc(Nc2ccccn2)c1=O` stands 138 to 139 °C; under `CCOC(=O)CC(=O)CCNC(=O)OCc1ccccc1`, 25 to 27 °C. Turning to `CCCOC[C@]1(OC)CC[C@H]2[C@@H]3CCC4=CC(=O)CCC4=C3[C@@H](c3ccc(C(C)=O)cc3)C[C@@]21C`, the melting point lay in the range of 118 to 120 °C.

`NC(Cc1cc2nccnc2cc1CP(=O)(O)O)C(=O)O` (stereo not drawn) displayed a melting point of 250 °C. `O=c1c(C=NO)c(Cl)nc2n1CCS2` returned a melting point of 148 to 150 °C.

Compound `S=c1c2ccc(Cl)cc2nc2n1CCCCC2` gave a melting point of 99 to 101 °C. In turn, `CCOC(=O)N1CCN(C(=CNc2cccc(OC)c2)C(=O)OC)CC1` registered a melting point of 120 to 122 °C.

The compound `CCc1cc(C(N)=O)nn1CC` displayed a melting point of 129 to 131 °C. Under `O=C(c1ccccc1)N1CCCC2=C1CCc1cc(Cl)ccc12` stands 194 to 196 °C; under `CC(O)(c1ccccc1)c1cc(Oc2ccc(Cl)cc2)ccc1O` (stereo not drawn), 103 to 104 °C; under `CN(C)CCOC(=O)c1cc(F)ccc1Nc1ccnc2c(Cl)cccc12`, 121 to 122 °C. For the compound `COC(=O)c1nc(N(C)C(C)=O)ccc1Oc1nc(OC)cc(OC)n1`, the melting point lay within 119 to 121 °C.

`CN(C)CCCOc1cc2oc3cc(-c4ccccc4Cl)c4c(c3c2cc1O)C(=O)NC4=O` came in with a melting point of 255 to 258 °C. In turn, `CCOCc1nc2c(N)nc(C)c(C)c2n1CCCCS(=O)(=O)N(C)C` showed a melting point of 158 to 160 °C. With `Brc1ccc(SCc2ncon2)cc1`, the melting point stood at 56 °C. The same measure for `CCCCn1cc(C(=O)C(=O)O)c2cc(-c3ccc(OC)cc3)ccc21`: 172 to 173 °C. The same measure for `O=C(NCCO)c1ccc(/C=C/c2ccccc2OCc2ccccc2)cc1`: 149 to 151 °C; for `CCOC(=O)C1NC(C(=O)O)c2[nH]c3cccc(OCc4cccc(Cl)c4)c3c2C1COC` (stereo not drawn): 178 to 179 °C; for `CCOC(=O)c1oc2c(C(=O)NCCCN3CCN(c4cc(Cl)ccc4OC)CC3)cccc2c(=O)c1C`: 107 to 115 °C.

`Cc1nn(-c2ccc(NC=C3C(=O)NC(=O)c4ccc(Br)cc43)cc2)c(C)c1Cl` displayed a melting point of 290 to 291 °C. The same measure for `CCCc1c(OCCCOc2ccc(N)cc2)ccc2c1OC(CCC(=O)OCC)(CCC(=O)OCC)CC2=O`: 126 to 127 °C; for `CCN1CCc2ccc(Nc3ncc(Cl)c(N[C@H]4CCC[C@H]4C(N)=O)n3)cc2CC1` (relative stereo): 237 to 242 °C; for `Cc1c(SCCCCS)ccnc1CO`: 58 to 63 °C. The same measure for `CCOC(=O)Cc1c(SC)c2cc(F)ccc2n1Cc1ccc(Cl)cc1`: 118 to 119 °C. Under `CC#CCOc1cc(Oc2cccc(C#N)c2)ncn1` stands 121 °C; under `Cc1c(C)c2c(c(C)c1N)C(c1ccc(C(C)C)cc1)C(C)(C)O2` (stereo not drawn), 130 to 132 °C; under `NP(=O)(O)CCc1ccccc1`, 226 °C.

`CC1(C)Oc2c(N)ccc(Cl)c2C1=O`: the melting point lay within 71 to 73 °C. The same measure for `CCCCCCCCOC(=O)NCC1CCC(CNC(=O)OCCCCCCCC)CC1` (stereo not drawn): 120 to 122 °C. Under `CNN1CSC(=Cc2cc(C(C)(C)C)c(O)c(C(C)(C)C)c2)C1=O` stands 151 to 154 °C. Under `COc1ccccc1C1NC(=O)C(C)S1` (stereo not drawn) stands 187 to 188 °C; under `CC1CC(Nc2nnc(-c3cccc(Oc4cccc(C(F)(F)F)c4)c3)s2)CC(C)(C)C1` (stereo not drawn), 101 to 102 °C.

Consider `CS(=O)c1ccc(-n2cnc3ccc(-c4nnc(SCc5cccc(C#N)c5)o4)cc32)cc1` (stereo not drawn), for which the melting point fell in the range of 152 to 153 °C. The same measure for `Cc1oc(C=Cc2cccc(C(F)(F)F)c2)nc1C(=O)O`: 204 to 205 °C; for `CCc1[nH]n(C2CCCC2)c2nc(-c3cccc(OCCN4CCCCC4)c3)nc(=O)c1-2`: 180 °C. The same measure for `NC1=CC(=O)C2CCCCC2C1` (stereo not drawn): 208 to 210 °C. The same measure for `N#CC1CN1C(=O)c1ccccn1` (stereo not drawn): 124 to 127 °C. With `CN1CCN(c2ccc3nc(N)c(C#N)c(O)c3c2)CC1`, the melting point came out at 156 °C. The same measure for `CS(=O)(=O)c1ccc(-c2cnn(-c3cccc(Cl)c3)c(=O)c2SCc2ccccc2)cc1`: 142 to 145 °C. Under `CCCCn1c(=O)n(CCN2CCC(C(=O)c3ccc(F)cc3)CC2)c(=O)c2cscc21` stands 126 to 127 °C; under `Cc1nc(C)c(C(=O)Nc2cccc(Oc3ccc4nc(NC(=O)C5CC5)cn4n3)c2)s1`, 249 °C. Compound `CNC(=O)n1nc(Oc2ccc([N+](=O)[O-])cc2C(F)(F)F)c(C)c1C` showed a melting point of 113 to 115 °C. The same measure for `Nc1nc2cccnc2c2c1nc(CO)n2CC1(O)CCOCC1`: above 250 °C; for `CCOC(=O)/C=C/c1ccc(OCCOCCOC)cc1Oc1ncc(C(F)(F)F)cc1Cl`: 76.6 to 76.8 °C.

`CCOC(=O)C1=C(C)NC(C)=C(C(=O)OCC)C1c1csc2ccc([N+](=O)[O-])cc12` had a melting point of 255 to 259 °C. Under `O=C1c2c(Cl)cccc2S(=O)(=O)N1CCl` stands 135 to 136 °C. Under `CCCN1c2ccccc2C(=O)N(CC(=O)O)c2cc(Cc3c[nH]c4ccccc34)ccc21` stands 160 to 170 °C.

Regarding `COc1ccccc1OCC1(COc2ccccc2OC)NC(C(=O)O)CS1` (stereo not drawn), the melting point was in the range of 160 to 162 °C. The same measure for `CCc1c(C(=O)O)oc2ccc(Br)cc12`: 240 to 242 °C; for `CCCNC(=O)c1nc(-c2ccccc2)c(-c2ccc(=O)[nH]n2)s1`: 232 to 233 °C; for `O=C(O)c1ccc(-c2ccnnc2)cc1`: above 330 °C. Under `Cc1cc(C)nc(NC(=O)NS(=O)(=O)c2sccc2-c2ccon2)n1` stands 172 to 173 °C. The same measure for `CCN1C(=O)CCCc2c1ccc(Nc1ncc(Cl)c(Nc3ccccc3C(=O)NC)n1)c2OC`: 225 to 227 °C; for `CCCCCCCCCCCCCCOc1ccc(CBr)cc1`: 40 to 41 °C; for `CC(=O)NC[C@H]1CN(c2ccc(-n3cc(-c4ccc(Cl)cc4)cn3)c(F)c2)C(=O)O1`: 238 °C. In turn, `CCCCn1nc(C(N)=O)cc1C` returned a melting point of 114 °C.

Consider `COC(=O)c1ccc(NC=O)cc1S(=O)(=O)NC(C)(C)C`, for which the melting point was 113 to 114 °C. As for `CCc1cc(C(=O)c2ccccc2Cl)c(-n2c(CNC(=O)c3cc4ccccc4n3CC(=O)O)nnc2C(F)(F)F)s1`, the melting point lay in the range of 200 to 203 °C. `CC(NC(Nc1cc(C(F)(F)F)cc(C(F)(F)F)c1)=C(C#N)S(=O)(=O)C(C)C)C(C)(C)C` (stereo not drawn) gave a melting point of 177 to 180 °C. Under `O=C(CCN1CCCC1)Nc1ccc2c(=O)c3ccc(NC(=O)CCN4CCCC4)cc3[nH]c2c1` stands above 320 °C.

Compound `CC(=O)C1(CCC(=O)OC(C)(C)C)CCCCC1=O` (stereo not drawn) registered a melting point of 47 to 53 °C.
